pEC50, pIC50: −log10 of the molar value. Read-outs that look alike come from different tables or passages of the source.
What was measured:
[1] = target: GCN5L2(h) (Homo sapiens, UniProt Q92830); assay: Epigenetic enzyme assay, Histone acetyltransferases (HATs); format: biochemical; settings: 10 μM; read-out: % Inhibition of Control Values
[2] = system: NF-κB; assay: Transcription Response, NF-κB; format: cell-based, Human
Protocol: (§1) The in vitro pharmacological studies were conducted by Eurofins PanLab (Taiwan) using the parameters shown in Table 13 with respect to appropriate literature references.

[3] = target: T1, Histamine H4 (Homo sapiens, UniProt Q9H3N8); assay: Histamine H4 radio ligand binding
T1 construct: expressed in transfected cells; host or cells: Chem-1 cells
T1 sequence (Q9H3N8 whole entry): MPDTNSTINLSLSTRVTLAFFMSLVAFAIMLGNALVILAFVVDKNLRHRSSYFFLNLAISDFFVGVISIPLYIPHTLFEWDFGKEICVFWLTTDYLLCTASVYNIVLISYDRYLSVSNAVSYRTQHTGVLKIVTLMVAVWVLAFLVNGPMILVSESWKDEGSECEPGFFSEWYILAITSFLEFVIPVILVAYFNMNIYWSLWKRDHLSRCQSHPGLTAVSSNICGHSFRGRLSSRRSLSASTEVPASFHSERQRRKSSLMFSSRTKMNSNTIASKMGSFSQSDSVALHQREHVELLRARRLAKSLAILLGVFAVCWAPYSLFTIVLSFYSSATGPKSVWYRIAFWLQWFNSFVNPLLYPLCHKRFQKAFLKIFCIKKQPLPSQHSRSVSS
Protocol: as §1

[4] = target: PRMT6 (h) (Homo sapiens, UniProt Q96LA8); assay: Epigenetic enzyme assay, Methyltransferases (MTs); format: biochemical; settings: read-out: % Inhibition of Control Values
Chain of PRMT6 (h) (Q96LA8 whole entry): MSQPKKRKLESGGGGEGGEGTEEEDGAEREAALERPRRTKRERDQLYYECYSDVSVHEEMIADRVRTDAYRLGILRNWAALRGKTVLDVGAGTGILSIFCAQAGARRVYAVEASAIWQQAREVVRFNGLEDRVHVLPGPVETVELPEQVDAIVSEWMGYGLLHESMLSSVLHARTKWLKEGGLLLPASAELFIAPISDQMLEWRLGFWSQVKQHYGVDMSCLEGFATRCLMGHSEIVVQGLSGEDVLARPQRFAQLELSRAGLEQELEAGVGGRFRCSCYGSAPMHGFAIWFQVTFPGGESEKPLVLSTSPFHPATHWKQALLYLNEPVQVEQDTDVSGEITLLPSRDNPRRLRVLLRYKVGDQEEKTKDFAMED

[5] = target: Aurora B (h) (substrate histone H3 full length) (Homo sapiens, UniProt Q96GD4); assay: Epigenetic enzyme assay, Kinases; format: biochemical; settings: read-out: % Inhibition of Control Values
Chain of Aurora B (h) (substrate histone H3 full length) (Q96GD4 whole entry): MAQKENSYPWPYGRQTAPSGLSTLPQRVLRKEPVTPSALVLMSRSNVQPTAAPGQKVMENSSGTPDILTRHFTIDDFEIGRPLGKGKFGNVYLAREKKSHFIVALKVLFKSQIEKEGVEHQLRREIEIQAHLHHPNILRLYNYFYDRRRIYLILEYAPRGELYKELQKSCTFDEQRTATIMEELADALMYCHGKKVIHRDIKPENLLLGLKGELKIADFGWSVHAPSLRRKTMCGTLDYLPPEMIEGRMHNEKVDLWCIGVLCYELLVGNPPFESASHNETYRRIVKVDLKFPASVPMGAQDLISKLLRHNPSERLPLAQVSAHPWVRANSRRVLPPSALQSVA

[6] = target: T2, ASH1L (h) bromodomain (Homo sapiens, UniProt Q9NR48); assay: Epigenetic binding assay, Bromodomain; settings: for inhibition at 10 µM: read-out: % Inhibition of Control Specific Binding
T2 construct: ASH1L (h) bromodomain

[7] = system: J-RT3-T3-5 leukemia; assay: OncoPanel cell proliferation assay (10-day); format: cell-based, human; settings: for GI50 / pEC50 / pIC50: Homo sapiens; for pEC50: read-out: Cell Count EC50; for pIC50: read-out: Cell Count IC50
[8] = target: T3, WHSC1(h) (NSD2(h)) (Homo sapiens, UniProt O96028); assay: Epigenetic enzyme assay, Methyltransferases (MTs); format: biochemical; settings: 10 μM; read-out: % Inhibition of Control Values
T3 sequence (O96028 1-1365): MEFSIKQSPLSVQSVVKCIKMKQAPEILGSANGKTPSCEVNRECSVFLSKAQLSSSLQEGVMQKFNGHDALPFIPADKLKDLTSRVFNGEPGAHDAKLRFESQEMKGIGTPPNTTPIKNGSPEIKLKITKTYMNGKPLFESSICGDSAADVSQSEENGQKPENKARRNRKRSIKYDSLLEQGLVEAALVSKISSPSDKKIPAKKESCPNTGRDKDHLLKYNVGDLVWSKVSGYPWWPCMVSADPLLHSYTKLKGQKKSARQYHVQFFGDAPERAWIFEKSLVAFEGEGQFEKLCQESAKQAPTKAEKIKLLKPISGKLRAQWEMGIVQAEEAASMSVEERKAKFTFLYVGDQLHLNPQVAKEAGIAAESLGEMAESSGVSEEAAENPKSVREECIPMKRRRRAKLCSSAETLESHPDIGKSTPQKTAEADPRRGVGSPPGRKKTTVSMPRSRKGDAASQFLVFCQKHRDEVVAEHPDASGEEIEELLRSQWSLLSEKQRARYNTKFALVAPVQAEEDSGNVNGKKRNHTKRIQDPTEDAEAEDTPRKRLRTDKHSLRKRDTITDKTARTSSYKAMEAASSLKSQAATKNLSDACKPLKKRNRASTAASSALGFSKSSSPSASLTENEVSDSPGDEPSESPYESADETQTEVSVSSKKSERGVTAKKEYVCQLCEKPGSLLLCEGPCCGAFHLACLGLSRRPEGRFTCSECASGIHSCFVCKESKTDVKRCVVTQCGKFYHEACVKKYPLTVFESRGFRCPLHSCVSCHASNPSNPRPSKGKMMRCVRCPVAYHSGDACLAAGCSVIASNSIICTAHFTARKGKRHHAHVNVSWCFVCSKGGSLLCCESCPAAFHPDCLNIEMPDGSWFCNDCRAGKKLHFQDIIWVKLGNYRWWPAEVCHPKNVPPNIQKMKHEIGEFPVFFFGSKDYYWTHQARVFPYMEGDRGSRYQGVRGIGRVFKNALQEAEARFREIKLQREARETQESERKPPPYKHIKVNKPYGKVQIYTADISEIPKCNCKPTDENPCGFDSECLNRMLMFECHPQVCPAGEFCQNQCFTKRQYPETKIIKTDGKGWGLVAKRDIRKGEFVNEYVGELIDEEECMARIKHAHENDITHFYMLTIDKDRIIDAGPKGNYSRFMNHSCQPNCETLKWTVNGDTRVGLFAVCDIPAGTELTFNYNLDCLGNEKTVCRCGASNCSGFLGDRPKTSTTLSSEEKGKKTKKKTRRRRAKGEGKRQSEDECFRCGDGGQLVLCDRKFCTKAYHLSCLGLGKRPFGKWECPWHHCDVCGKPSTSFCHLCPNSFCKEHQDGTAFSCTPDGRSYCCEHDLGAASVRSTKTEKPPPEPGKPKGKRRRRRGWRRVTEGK

[9] = assay year 2014, read-out: % Control Response
[10] = assay year 2015, read-out: % Control Response
[11] = J-RT3-T3-5, Leukemia, read-out: Cell Count GI50

Chain of GCN5L2(h) (Q92830 whole entry): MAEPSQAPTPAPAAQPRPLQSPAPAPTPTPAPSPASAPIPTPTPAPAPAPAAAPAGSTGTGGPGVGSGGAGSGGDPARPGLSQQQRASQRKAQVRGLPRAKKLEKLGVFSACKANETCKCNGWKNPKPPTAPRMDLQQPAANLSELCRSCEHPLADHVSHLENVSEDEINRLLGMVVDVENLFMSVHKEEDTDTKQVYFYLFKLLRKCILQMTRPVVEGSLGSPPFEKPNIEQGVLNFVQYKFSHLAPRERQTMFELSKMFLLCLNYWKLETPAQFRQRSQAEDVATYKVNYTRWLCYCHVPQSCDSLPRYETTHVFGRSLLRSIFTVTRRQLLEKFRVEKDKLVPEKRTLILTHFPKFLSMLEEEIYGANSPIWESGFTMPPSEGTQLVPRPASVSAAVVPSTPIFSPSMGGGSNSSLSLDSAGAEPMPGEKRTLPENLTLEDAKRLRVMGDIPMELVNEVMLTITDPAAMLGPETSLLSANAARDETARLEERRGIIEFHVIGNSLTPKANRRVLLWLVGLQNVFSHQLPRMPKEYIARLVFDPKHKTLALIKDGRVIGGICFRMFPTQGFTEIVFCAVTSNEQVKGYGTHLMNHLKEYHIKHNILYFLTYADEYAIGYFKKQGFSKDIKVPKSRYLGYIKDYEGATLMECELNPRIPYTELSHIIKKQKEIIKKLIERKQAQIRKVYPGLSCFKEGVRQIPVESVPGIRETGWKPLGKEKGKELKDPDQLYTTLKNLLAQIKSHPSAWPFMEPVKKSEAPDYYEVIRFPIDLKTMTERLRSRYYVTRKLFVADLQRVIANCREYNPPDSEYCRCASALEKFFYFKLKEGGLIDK

CC(C)=CCC[C@H](CO)[C@@H]1CC[C@@H](C)c2c1cc(C)c(O)c2O [Compound 1, 7,8,18-trihydroxyserrulat-14-ene]
inhibition at 10 µM [1]: 11%
Resp Av % ([2]; Antagonist, Conc 0.001 μM): −25%
Resp Av % ([2]; Antagonist, Conc 0.01 μM): −5%
Resp Av % ([2]; Antagonist, Conc 0.1 μM): 0%
Resp Av % ([2]; Antagonist, Conc 1 μM): 17%
Resp Av % ([2]; Antagonist, Conc 10 μM): 103%
pIC50 ([2]; Homo sapiens, Antagonist): 5.85
pIC50 ([2]; Homo sapiens, transcription response NF-κB): 5.87
pIC50 ([2]; transcription response NF-κB): 6.16
remaining activity at 10 µM [3, 9]: 50%
remaining activity at 10 µM [3, 10]: 12%
inhibition at 10 µM [4]: 49%
inhibition at 10 µM [5]: 6%
% Inhibition of Control Specific Binding ([6]; 10 μM): significant inhibitory activity
inhibition at 10 µM ([6]; 10 μM): 95%
inhibition of binding, 1st ([6]; 3.0E−05M): 100.6
inhibition of binding, 2nd ([6]; 3.0E−05M): 99.6
inhibition of binding, Mean ([6]; 3.0E−05M): 100.1
inhibition of binding, 1st ([6]; 3.0E−06M): 17.0
inhibition of binding, 2nd ([6]; 3.0E−06M): 28.0
inhibition of binding, Mean ([6]; 3.0E−06M): 22.5
inhibition of binding, 1st ([6]; 3.0E−07M): −0.2
inhibition of binding, 2nd ([6]; 3.0E−07M): −2.9
inhibition of binding, Mean ([6]; 3.0E−07M): −1.6
inhibition of binding, 1st ([6]; 3.0E−08M): −12.3
inhibition of binding, 2nd ([6]; 3.0E−08M): 1.8
inhibition of binding, Mean ([6]; 3.0E−08M): −5.2
inhibition of binding, 1st ([6]; 3.0E−09M): −2.6
inhibition of binding, 2nd ([6]; 3.0E−09M): −8.2
inhibition of binding, Mean ([6]; 3.0E−09M): −5.4
pIC50 ([6]; Table 9, inhibition/concentration-response curve, read-out: IC50): 5.38
GI50 ([7]; J-RT3-T3-5, read-out: GI50): 10.1 nM
pEC50 ([7]; J-RT3-T3-5, Leukemia): 8.00
GI50 [7, 11]: 10 nM
pIC50 ([7]; J-RT3-T3-5, Leukemia): 8.00
inhibition at 10 µM [8]: 3%

CC(C)=CCC[C@@H]1C(O)Oc2c(C)cc(O)c3c2[C@H]1CC[C@H]3C (stereo partly drawn) [Compound 2, 5,18-epoxyserrulat-14-en-8,18-diol]
inhibition at 10 µM [1]: 5%
Resp Av % ([2]; Antagonist, Conc 0.001 μM): −7%
Resp Av % ([2]; Antagonist, Conc 0.01 μM): −7%
Resp Av % ([2]; Antagonist, Conc 0.1 μM): −3%
Resp Av % ([2]; Antagonist, Conc 1 μM): 10%
Resp Av % ([2]; Antagonist, Conc 10 μM): 34%
pIC50 ([2]; Homo sapiens, Antagonist): < 5.00
remaining activity at 10 µM [3, 9]: 16%
remaining activity at 10 µM [3, 10]: -1%
inhibition at 10 µM [4]: 57%
inhibition at 10 µM [5]: 4%
inhibition at 10 µM ([6]; 10 μM): 59%
pEC50 ([7]; J-RT3-T3-5, Leukemia): 5.68
GI50 [7, 11]: 2060 nM
pIC50 ([7]; J-RT3-T3-5, Leukemia): 5.68
inhibition at 10 µM [8]: 14%

CC(C)=CCC[C@@H]1COc2c(C)cc(O)c3c2[C@H]1CC[C@H]3C [Compound 3, 5,18-epoxy-8-hydroxyserrulat-14-ene]
inhibition at 10 µM [1]: 1%
Resp Av % ([2]; Antagonist, Conc 0.001 μM): −16%
Resp Av % ([2]; Antagonist, Conc 0.01 μM): −11%
Resp Av % ([2]; Antagonist, Conc 0.1 μM): −7%
Resp Av % ([2]; Antagonist, Conc 1 μM): 1%
Resp Av % ([2]; Antagonist, Conc 10 μM): −19%
pIC50 ([2]; Homo sapiens, Antagonist): < 5.00
remaining activity at 10 µM [3, 10]: 10%
inhibition at 10 µM [4]: 34%
inhibition at 10 µM [5]: -1%
inhibition at 10 µM ([6]; 10 μM): 42%
inhibition at 10 µM [8]: 7%

CC(C)=CCC[C@H](C)[C@@H]1CC[C@@H](C)c2c1cc(C)c(O)c2O [Compound 4, 7,8-dihydroxyserrulat-14-ene]
GI50 ([7]; J-RT3-T3-5, read-out: GI50): 2710 nM
pEC50 ([7]; J-RT3-T3-5, Leukemia): 5.57
GI50 [7, 11]: 2710 nM
pIC50 ([7]; J-RT3-T3-5, Leukemia): 5.57
times less activity than Compound 1 ([7]; ratio of GI50 values): approximately 270 times

Reference: patent US11331299B2, “Medicinal use of serrulatane diterpenes” (The University of Sydney, priority 2016, dated 2022)
